{"source": "patent US5424185A", "about": "“Human high-affinity neurotransmitter uptake system” (Baylor College of Medicine, priority 1990, dated 1995)", "key": {"rat spinal cord": {"tested_on": "rat spinal cord", "conditions": "membrane preparation, published value, cited from earlier work"}, "rat brain": {"tested_on": "rat brain", "conditions": "membrane preparation, published value, cited from earlier work"}, "frog spinal cord": {"tested_on": "frog spinal cord", "conditions": "membrane preparation, published value, cited from earlier work"}, "[1]": {"tested_on": "mouse pons-medulla-spinal cord", "conditions": "membrane preparation, published value, cited from earlier work"}, "Y79 retinoblastoma": {"tested_on": "Y79 retinoblastoma", "conditions": "cell, published value, cited from earlier work"}, "[2]": {"tested_on": "human brain (post-mortem)", "conditions": "membrane preparation, published value, cited from earlier work"}, "monkey retina": {"tested_on": "monkey retina", "conditions": "tissue, published value, cited from earlier work"}, "[3]": {"tested_on": "GABA transporter (L-GAB1 cells)", "experiment": "[3H]GABA uptake by L-GAB1 cells", "type": "cell-based, human", "conditions": "competitor at 100-fold excess relative to [3H]GABA", "experimental": "Using concentrations of [^3 H] GABA ranging from 2 to 500 μM, the kinetic profile of GABA uptake was determined for both L-GAB1 and L-M cells. The initial velocity of GABA uptake was measured and plotted against the corresponding [^3 H] GABA concentration for both cell lines. […] The velocity profile for L-GAB1 cells was subtracted by that of L-M cells, and the resulting data used for a double-reciprocal plot of velocity-^1 against GABA concentration-^1. The velocity profile for L-M cells was also transformed into a double-reciprocal plot.\nSeveral known inhibitors of high-affinity GABA uptake were used to examine their efficacies in inhibiting [^3 H] GABA uptake by L-GAB1 cells. […] Each of these agents was used at several concentrations ranging from 1 to 100 μM in assays of [^3 H] GABA uptake by L-GAB1 cells. […] GABA uptake by L-GAB1 cells.\nL-GAB1 cells were also analyzed in terms of their ligand-specificity in the high-affinity GABA uptake mechanism."}, "C6 glioblastoma": {"tested_on": "C6 glioblastoma", "conditions": "read-out: Km, C6 glioblastoma; membrane preparation, published value; cited from earlier work"}, "goldfish retina": {"tested_on": "goldfish retina", "conditions": "tissue, published value, cited from earlier work"}, "chicken brain": {"tested_on": "chicken brain", "conditions": "membrane preparation, published value, cited from earlier work"}, "L-M cells": {"tested_on": "L-M cells", "conditions": "ligand 100 μM (1000-fold excess), 0.1 μM [3H]glycine, 40 min, 37° C.", "experimental": "(§1) L-GLY2 and L-M cells were assayed for the uptake of [^3 H] glycine (0.1 μM) in the presence or absence of competing, unlabelled amino acids or neurotransmitters. Each competing ligand was present in 1000-fold molar excess (100 μM) of the [^3 H] glycine. […] The assays were performed at 37° C. for 40 minutes. Alanine, proline and serine, each at 1 mM, was added to the Ringer's buffer for all assays.\n(§2) At each concentration of [^3 H] glycine used, both uptake levels were converted to picomole-equivalents of [^3 H] glycine, then normalized by both length of assay and corresponding protein contents to arrive at the uptake velocity values. The nonspecific uptake velocity was then subtracted from the total uptake velocity to yield the specific uptake velocity. The specific uptake velocities and their corresponding [^3 H] glycine concentrations were analyzed by both Michaelis-Menten and Lineweaver-Burk transformations of the resulting kinetic profiles. For both analyses, data-points were fitted to either linear or logarithmic functions by computerized algorithms."}, "[4]": {"tested_on": "human glycine transporter (L-GLY2 cells)", "experimental": "The incubation was conducted for 40 min at 37° C. Each well was washed three times at room temperature with excess Ringer's buffer and then incubated with 50 μl of alkaline phosphatase buffer (100 mM Tris, pH 9.5, 100 mM NaCl, 10 mMMgCl2, 20 μg/ml saponin, 3.2 mg/ml p-nitrophenyl phosphate) for 1-2 hours at 37° C. The phosphatase assay was used as a relative assessment of cell number, and used to normalize the level of [^3 H]glycine associated with each well as described above. The phosphatase reading for each assayed well was plotted versus its corresponding level of [^3 H]glycine-retention.\nas §1, §2"}, "frog retina": {"tested_on": "frog retina", "conditions": "read-out: Km, frog retina; tissue, published value; cited from earlier work"}, "chicken spinal cord": {"tested_on": "chicken spinal cord", "conditions": "membrane preparation, published value, cited from earlier work"}, "frog brain": {"tested_on": "frog brain", "conditions": "membrane preparation, published value, cited from earlier work"}, "mouse cerebral cortex": {"tested_on": "mouse cerebral cortex", "conditions": "membrane preparation, published value, cited from earlier work"}}, "note": "Read-outs that look alike come from different tables or passages of the source."}
{"smiles": "NCC(=O)O", "note": "[glycine]", "values": [{"measurement": "Vmax, rat spinal cord", "setting": "rat spinal cord", "value": "1.43 ± 0.02", "unit": "pmol/mg/min"}, {"measurement": "Km", "setting": "rat spinal cord; read-out: Km, rat spinal cord", "value": "46.5 ± 1.6", "unit": "µM"}, {"measurement": "Vmax, rat brain", "setting": "rat brain", "value": "0.48 ± 0.07", "unit": "pmol/mg/min"}, {"measurement": "Km", "setting": "rat brain; read-out: Km, rat brain", "value": "34 ± 1.3", "unit": "µM"}, {"measurement": "Vmax, frog spinal cord", "setting": "frog spinal cord", "value": "1.52 ± 0.03", "unit": "pmol/mg/min"}, {"measurement": "Km", "setting": "frog spinal cord; read-out: Km, frog spinal cord", "value": "29 ± 0.7", "unit": "µM"}, {"measurement": "Vmax, mouse pons-medulla-spinal cord", "setting": "[1]", "value": "3100 ± 100", "unit": "pmol/mg/min"}, {"measurement": "Km", "setting": "[1]; read-out: Km, mouse pons-medulla-spinal cord", "value": "27.6 ± 2.6", "unit": "µM"}, {"measurement": "Vmax, Y79 retinoblastoma", "setting": "Y79 retinoblastoma", "value": "138.40 ± 12.40", "unit": "pmol/mg/min"}, {"measurement": "Km", "setting": "Y79 retinoblastoma; read-out: Km, Y79 retinoblastoma", "value": "24.4 ± 2.6", "unit": "µM"}, {"measurement": "Vmax, human brain (post-mortem)", "setting": "[2]", "value": "55 ± 25", "unit": "pmol/mg/min"}, {"measurement": "Km", "setting": "[2]; read-out: Km, human brain (post-mortem)", "value": "35 ± 19", "unit": "µM"}, {"measurement": "Km", "setting": "monkey retina; read-out: Km, monkey retina", "value": "2.5 ± 0.9", "unit": "µM"}, {"measurement": "Vmax, monkey retina", "setting": "monkey retina", "value": "3.30 ± 1.60", "unit": "pmol/mg/min"}, {"measurement": "ligand-specificity of [3H]GABA uptake by L-GAB1 cells", "setting": "[3]", "value": "not inhibited"}, {"measurement": "Km", "setting": "C6 glioblastoma", "value": 100, "unit": "µM"}, {"measurement": "Km", "setting": "goldfish retina; read-out: Km, goldfish retina", "value": "8.08 ± 0.7", "unit": "µM"}, {"measurement": "Vmax, goldfish retina", "setting": "goldfish retina", "value": "8.71 ± 0.54", "unit": "pmol/mg/min"}, {"measurement": "Vmax, chicken brain", "setting": "chicken brain", "value": "0.32 ± 0.01", "unit": "pmol/mg/min"}, {"measurement": "Km", "setting": "chicken brain; read-out: Km, chicken brain", "value": "37 ± 2", "unit": "µM"}, {"measurement": "effect of competing ligand on [3H]glycine uptake, L-M", "setting": "L-M cells", "value": "not significantly inhibited"}, {"measurement": "Vmax of glycine uptake, L-GLY2", "setting": "[4]; 50 nM to 5 μM [3H]glycine, 10 min, Lineweaver-Burk", "value": "10.19±3.32", "unit": "pmol/min/mg protein"}, {"measurement": "Vmax, L-GLY2", "setting": "[4]; Table IV", "value": "10.19 ± 3.32", "unit": "pmol/mg/min"}, {"measurement": "effect of competing ligand on [3H]glycine uptake, L-GLY2", "setting": "[4]; ligand 100 μM (1000-fold excess), 0.1 μM [3H]glycine, 40 min, 37° C., 1 mM alanine, proline, serine", "value": "reduced [^3 H] glycine transport into L-GLY2 cells to the same level as that of L-M cells"}, {"measurement": "Km", "setting": "[4]; read-out: Km, L-GLY2, Table IV", "value": "1.5 ± 0.2", "unit": "µM"}, {"measurement": "Km", "setting": "[4]; read-out: apparent Km of glycine uptake, L-GLY2, 50 nM to 5 μM [3H]glycine, 10 min, Lineweaver-Burk", "value": 1.5, "unit": "µM"}, {"measurement": "Km", "setting": "frog retina", "value": "> 4.7", "unit": "µM"}, {"measurement": "Vmax, chicken spinal cord", "setting": "chicken spinal cord", "value": "0.65 ± 0.02", "unit": "pmol/mg/min"}, {"measurement": "Km", "setting": "chicken spinal cord; read-out: Km, chicken spinal cord", "value": "41.8 ± 1", "unit": "µM"}, {"measurement": "Vmax, frog brain", "setting": "frog brain", "value": "1.14 ± 0.06", "unit": "pmol/mg/min"}, {"measurement": "Km", "setting": "frog brain; read-out: Km, frog brain", "value": "24.8 ± 1.4", "unit": "µM"}, {"measurement": "Vmax, mouse cerebral cortex", "setting": "mouse cerebral cortex", "value": "340 ± 70", "unit": "pmol/mg/min"}, {"measurement": "Km", "setting": "mouse cerebral cortex; read-out: Km, mouse cerebral cortex", "value": "15.2 ± 2", "unit": "µM"}]}
